Results from US10947188B2, “Small molecule ferroptosis inducers” (THE TRUSTEES OF COLUMBIA UNIVERSITY IN THE CITY OF NEW YORK, priority 2016, dated 2021).

System: HT-1080
Test: Modulatory profiling: Alamar Blue viability, lethal compound cotreated with death modulator (EC50, AUC)
Format: cell-based
Design: AUC, modulator HT.3MA / AUC, modulator HT.ALLN / AUC HT.ATA / AUC HT.ActD / AUC HT.BHA / AUC HT.BHT / AUC HT.BocD / AUC HT.CHX / AUC HT.Co2+ / AUC HT.DPQ / AUC HT.EGTA / AUC HT.Lmim / AUC HT.NAD+ / AUC HT.Nec-1 / AUC HT.SP600125 / AUC HT.TLCK / AUC HT.U0126: unit not given beside the values
Conditions: for AUC HT.ATA: HT-1080, modulator ATA; for AUC HT.ActD: HT-1080, modulator ActD; for AUC HT.BHA: HT-1080, modulator BHA; for AUC HT.BHT: HT-1080, modulator BHT; for AUC HT.BocD: HT-1080, modulator BocD; for AUC HT.CHX: HT-1080, modulator CHX; for AUC HT.Co2+: HT-1080, modulator Co2+; for AUC HT.CspA: HT-1080, modulator CspA; for AUC HT.DPQ: HT-1080, modulator DPQ; for AUC HT.EGTA: HT-1080, modulator EGTA; for AUC HT.Gd3+: HT-1080, modulator Gd3+; for AUC HT.LNAME: HT-1080, modulator LNAME; for AUC HT.Lmim: HT-1080, modulator Lmim; for AUC HT.NAD+: HT-1080, modulator NAD+; for AUC HT.NMMA: HT-1080, modulator NMMA; for AUC HT.Nec-1: HT-1080, modulator Nec-1; for AUC HT.Pepstatin: HT-1080, modulator Pepstatin; for AUC HT.SP600125: HT-1080, modulator SP600125; for AUC HT.TLCK: HT-1080, modulator TLCK; for AUC HT.U0126: HT-1080, modulator U0126; for HT.atoc (AUC) / HT.bCarotene (AUC) / HT.deferox (AUC) / HT.digoxin (AUC) / HT.trolox (AUC) / HT.zVAD (AUC): HT-1080; for HT.atoc (AUC): modulator atoc; for HT.bCarotene (AUC): modulator bCarotene; for HT.deferox (AUC): modulator deferox; for HT.digoxin (AUC): modulator digoxin; for HT.trolox (AUC): modulator trolox; for HT.zVAD (AUC): modulator zVAD; for AUC, modulator HT.3MA / AUC, modulator HT.ALLN: HT-1080 cells, modulatory profile value (AUC); for AUC, modulator HT.3MA: lethal compound cotreated with modulator 3MA; for AUC, modulator HT.ALLN: lethal compound cotreated with modulator ALLN

Compound	AUC HT.ATA	AUC HT.ActD	AUC HT.BHA	AUC HT.BHT	AUC HT.BocD	AUC HT.CHX	AUC HT.Co2+	AUC HT.CspA	AUC HT.DPQ	AUC HT.EGTA	AUC HT.Gd3+	AUC HT.LNAME	AUC HT.Lmim	AUC HT.NAD+	AUC HT.NMMA	AUC HT.Nec-1	AUC HT.Pepstatin	AUC HT.SP600125	AUC HT.TLCK	AUC HT.U0126	further results
O=C(CCCCCN1C(=O)c2cccc3cccc(c23)C1=O)NO [Scriptaid]	−0.03873	−0.1632	−0.05883	−0.103	0.02828	−0.1048	−0.1939	−0.1413	−0.00813	−0.01767	−0.02176	−0.002637	−0.05583	0.01064	0.008869	−0.05617	−0.01296	−0.07	−0.05575	−0.04228	HT.atoc (AUC): −0.009331; HT.bCarotene (AUC): −0.01872; HT.deferox (AUC): −0.1469; HT.digoxin (AUC): −0.08793; HT.trolox (AUC): −0.02986; HT.zVAD (AUC): 0.02988; AUC, modulator HT.3MA: −0.1244; AUC, modulator HT.ALLN: −0.1403
CC(C)[C@@H]1NC(=O)[C@H](C)OC(=O)[C@@H](C(C)C)NC(=O)[C@@H](C(C)C)OC(=O)[C@H](C(C)C)NC(=O)[C@H](C)OC(=O)[C@@H](C(C)C)NC(=O)[C@@H](C(C)C)OC(=O)[C@H](C(C)C)NC(=O)[C@H](C)OC(=O)[C@@H](C(C)C)NC(=O)[C@@H](C(C)C)OC1=O [Vatinomycin]	0.04039	0.0779	−0.01263	−0.05233	0.01496	0.1024	−0.06183	−0.03789	0.1702	−0.04483	−0.004524	−0.03843	0.1163	0.07833	−0.002681	0.08394	0.0197	−0.161	0.02961	0.005482	HT.atoc (AUC): 0.2292; HT.bCarotene (AUC): −0.01526; HT.deferox (AUC): 0.004145; HT.digoxin (AUC): −0.1615; HT.trolox (AUC): 0.04463; HT.zVAD (AUC): −0.05753; AUC, modulator HT.3MA: −0.1653; AUC, modulator HT.ALLN: 0.04228
CC[C@]1(O)C[C@@H]2CN(CCc3c([nH]c4ccccc34)[C@@](C(=O)OC)(c3cc4c(cc3OC)N(C)[C@H]3[C@@](O)(C(=O)OC)[C@H](OC(C)=O)[C@]5(CC)C=CCN6CC[C@]43[C@@H]65)C2)C1 [Vinbiastine]	0.09963	0.05584	−0.01651	0.01379	0.1256	0.06309	0.2269	−0.1335	0.003688	0.01055	−0.002557	−0.01231	0.126	0.1682	−0.003516	−0.005874	−0.0004474	0.002862	0.002362	0.1372	HT.atoc (AUC): 0.1573; HT.bCarotene (AUC): 0.001945; HT.deferox (AUC): 0.2847; HT.digoxin (AUC): 0.1245; HT.trolox (AUC): −0.001959; HT.zVAD (AUC): 0.08924; AUC, modulator HT.3MA: 0.05249; AUC, modulator HT.ALLN: 0.1527
CC[C@]1(O)C[C@H]2CN(CCc3c([nH]c4ccccc34)[C@@](C(=O)OC)(c3cc4c(cc3OC)N(C=O)[C@H]3[C@@](O)(C(=O)OC)[C@H](OC(C)=O)[C@]5(CC)C=CCN6CC[C@]43[C@@H]65)C2)C1 [Vincristine]	0.1304	0.05976	−0.004754	−0.01568	0.1401	0.08269	0.217	−0.1876	0.01267	0.009231	−0.0009641	0.001779	0.1155	0.1699	0.004831	0.02188	0.000262	0.0008998	−0.006394	0.1926	HT.atoc (AUC): 0.01853; HT.bCarotene (AUC): 0.01182; HT.deferox (AUC): 0.3217; HT.digoxin (AUC): 0.142; HT.trolox (AUC): −0.01599; HT.zVAD (AUC): 0.1172; AUC, modulator HT.3MA: 0.0299; AUC, modulator HT.ALLN: 0.1869
C[C@@H]1C[C@@H]([C@H](O)CC2CC(=O)NC(=O)C2)C(=O)[C@@H](C)C1 [cycloheximide, Cycloheximide, reference compound]	−0.01057	0.06057	0.06705	−0.03297	0.0413	0.1462	0.09948	0.04639	0.01425	0.01386	0.002991	0.02188	0.1089	0.07007	0.01986	0.03736	0.006163	−0.003327	0.01836	0.03848	HT.atoc (AUC): 0.01667; HT.bCarotene (AUC): 0.008758; HT.deferox (AUC): 0.2041; HT.digoxin (AUC): 0.0457; HT.trolox (AUC): 0.02127; HT.zVAD (AUC): 0.0358; AUC, modulator HT.3MA: 0.005512; AUC, modulator HT.ALLN: 0.3818
